According to the supplement of paper PMC10307832:

Assays:
Assay in all cases: relative viability (nuclei count vs DMSO), 5 days (fraction); higher = more cells survive
NCI-H460 = system: NCI-H460
Procedure, shortened: (§1)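 Relative viability was taken as the ratio of nuclei in treated wells to nuclei in vehicle wells. Lung cancer cell lines in 1536-well plates received compounds by pin tool one day after seeding, either one drug alone or a fixed anchor-drug dose plus five library-drug doses (not always all listed) in √10 steps. Nuclei were counted on 4× images after 5 days of treatment, and values are medians of duplicate plates.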

SK-LU-1 = system: SK-LU-1
Procedure, shortened: as §1

CAL-12T = system: CAL-12T
Procedure, shortened: as §1

NCI-H2009 = system: NCI-H2009
Procedure, shortened: as §1

NCI-H1395 = system: NCI-H1395
Procedure, shortened: as §1

HOP-62 = system: HOP-62
Procedure, shortened: as §1

HCC-827 = system: HCC-827
Procedure, shortened: as §1

NCI-H727 = system: NCI-H727
Procedure, shortened: as §1

A-427 = system: A-427
Procedure, shortened: as §1

NCI-H2228 = system: NCI-H2228
Procedure, shortened: as §1

NCI-H1755 = system: NCI-H1755
Procedure, shortened: as §1

Nc1ccn([C@@H]2O[C@H](CO)[C@@H](O)[C@@H]2O)c(=O)n1 [Cytarabine] + Cc1cc(Nc2cc(N3CCN(C)CC3)nc(Sc3ccc(NC(=O)C4CC4)cc3)n2)n[nH]1 [Tozasertib] (partner 0.1 µM)
relative viability (NCI-H460; first compound 0.05 µM): 0.196
relative viability (NCI-H460; first compound 0.1581 µM): 0.0434
relative viability (NCI-H460; first compound 0.5 µM): 0.0361
relative viability (SK-LU-1; first compound 0.005 µM): 0.301
relative viability (SK-LU-1; first compound 0.01581 µM): 0.325
relative viability (SK-LU-1; first compound 0.05 µM): 0.279
relative viability (SK-LU-1; first compound 0.1581 µM): 0.185
relative viability (SK-LU-1; first compound 0.5 µM): 0.189
relative viability (CAL-12T; first compound 0.005 µM): 0.249
relative viability (CAL-12T; first compound 0.01581 µM): 0.323
relative viability (CAL-12T; first compound 0.05 µM): 0.27
relative viability (CAL-12T; first compound 0.1581 µM): 0.303
relative viability (CAL-12T; first compound 0.5 µM): 0.2
relative viability (NCI-H2009; first compound 0.005 µM): 0.685
relative viability (NCI-H2009; first compound 0.01581 µM): 0.795
relative viability (NCI-H2009; first compound 0.05 µM): 0.786
relative viability (NCI-H2009; first compound 0.1581 µM): 0.566
relative viability (NCI-H2009; first compound 0.5 µM): 0.308
relative viability (NCI-H1395; first compound 0.005 µM): 0.703
relative viability (NCI-H1395; first compound 0.01581 µM): 0.633
relative viability (NCI-H1395; first compound 0.05 µM): 0.434
relative viability (NCI-H1395; first compound 0.1581 µM): 0.447
relative viability (NCI-H1395; first compound 0.5 µM): 0.388
relative viability (HOP-62; first compound 0.005 µM): 0.251
relative viability (HOP-62; first compound 0.01581 µM): 0.259
relative viability (HOP-62; first compound 0.05 µM): 0.282
relative viability (HOP-62; first compound 0.5 µM): 0.0966
relative viability (HCC-827; first compound 0.005 µM): 0.32
relative viability (HCC-827; first compound 0.01581 µM): 0.282
relative viability (HCC-827; first compound 0.05 µM): 0.286
relative viability (HCC-827; first compound 0.1581 µM): 0.187
relative viability (HCC-827; first compound 0.5 µM): 0.172
relative viability (NCI-H727; first compound 0.005 µM): 0.574
relative viability (NCI-H727; first compound 0.01581 µM): 0.386
relative viability (NCI-H727; first compound 0.05 µM): 0.476
relative viability (NCI-H727; first compound 0.1581 µM): 0.4
relative viability (NCI-H727; first compound 0.5 µM): 0.463
relative viability (A-427; first compound 0.005 µM): 0.232
relative viability (A-427; first compound 0.01581 µM): 0.212
relative viability (A-427; first compound 0.05 µM): 0.163
relative viability (A-427; first compound 0.1581 µM): 0.161
relative viability (A-427; first compound 0.5 µM): 0.149
relative viability (NCI-H2228; first compound 0.005 µM): 0.144
relative viability (NCI-H2228; first compound 0.01581 µM): 0.204
relative viability (NCI-H2228; first compound 0.05 µM): 0.207
relative viability (NCI-H2228; first compound 0.1581 µM): 0.0929
relative viability (NCI-H2228; first compound 0.5 µM): 0.105
relative viability (NCI-H1755; first compound 0.005 µM): 0.492
relative viability (NCI-H1755; first compound 0.01581 µM): 0.452
relative viability (NCI-H1755; first compound 0.05 µM): 0.421
relative viability (NCI-H1755; first compound 0.1581 µM): 0.273
relative viability (NCI-H1755; first compound 0.5 µM): 0.344
